The values that follow come from publication PMC6277555, “Short Symmetric-End Antimicrobial Peptides Centered on β-Turn Amino Acids Unit Improve Selectivity and Stability” (Frontiers in Microbiology, 2018).

In one data set the test system is S. typhimurium ATCC 7731. The format is cell-based, Salmonella entericaserovar Typhimurium. Here is the method: (§1) The minimal inhibitory concentration (MIC) was determined according to a previously described method ([Chou et al., 2016]). Bacteria were cultured overnight to mid-log phase in MHB at 37°C and then diluted to give final concentrations ranging from 2 × 10^5 to 7 × 10^5 CFU/mL. Then, 50 μL of serial twofold dilutions of the peptides were added to each well in 96-well microtiter plates with a mixed solution containing 0.01% acetic acid and 0.2% bovine serum albumin (BSA, Sigma) was used to dissolve and dilute the peptides. Then, equal amounts of bacterial aliquots were incubated with the above peptide solution for 18–24 h at 37°C. The experiment was performed in triplicate using three replicates for each peptide and each bacterium. The broth was employed as a negative control and the broth with microbial cells was used as a positive control. The lowest concentration of peptide that prevented visible turbidity was defined as the MIC.

A further data set deals with S. aureus ATCC 29213. The format is cell-based, Staphylococcus aureus. To be noted: ATCC 29213. How it is done:
as §1, with “18-24” for “18–24”, “MIC. The condition sensitivity of peptides was tested in an MIC assay in different environments, including salt sensitivity, thermal sensitivity and different pH values similar to our previous method ([[…] et al., 2008]; [Ma et al., 2012]). […] For the heat resistance experiments, the peptides were incubated at 100°C for 30 min and cooled on ice for 10 min. […] The determination methods for these MIC assays were same as described above. To test the effects of serum on the antimicrobial activities of the peptides, human serum was dissolved in MHB to reach final concentrations of 25 and 50%. The determination methods for these MIC assays were same as described above.” for “MIC.”

In a further data set the test system is B. pyocyaneum ATCC 27853. The format is cell-based, Bacterium pyocyaneum. How it is done: as §1
Another data set has as its system B. subtilis CMCC 63501. The format is cell-based, Bacillus subtilis. How it is done: as §1
A further data set relates to E. coli ATCC25922. The format is cell-based, Escherichia coli. The following applies: ATCC25922. Here is the method:
as §1, with “18-24” for “18–24”, “MIC. The condition sensitivity of peptides was tested in an MIC assay in different environments, including salt sensitivity, thermal sensitivity and different pH values similar to our previous method ([[…] et al., 2008]; [Ma et al., 2012]). […] For the heat resistance experiments, the peptides were incubated at 100°C for 30 min and cooled on ice for 10 min. […] The determination methods for these MIC assays were same as described above. To test the effects of serum on the antimicrobial activities of the peptides, human serum was dissolved in MHB to reach final concentrations of 25 and 50%. The determination methods for these MIC assays were same as described above.” for “MIC.”

The next data set has as its system E. coli UB1005. The format is cell-based, Escherichia coli. How it is done: as §1
Another data set has as its system S. faecalis ATCC 29212. The class given is cell-based, Streptococcus faecalis. Here is the method:
as §1

The test system of another data set is S. aureus ATCC 43300. The class given is cell-based, Staphylococcus aureus. Here is the method:
as §1

A further data set deals with hRBCs. As to the kind of experiment: Hemolytic activity. The class given is cell-based, human. To be noted: peptide concentration resulting in 5% hemolysis of hRBCs; PBS, 1 h, 37°C. How it is done:
(§2) The hemolytic activity of the peptides was detected using a previously described modified method ([Wang et al., 2015]). One milliliter of fresh hRBCs was obtained from a healthy donor (Zhihua Wang, Harbin, China) in a polycarbonate tube containing heparin. The collected hRBCs were centrifuged at 1000 × g for 5 min at 4°C and resuspended in PBS buffer (pH 7.2). The hRBCs were washed three times and then incubated with an equal volume of the respective peptide dissolved in PBS for 1 h at 37°C. Then, the hRBC suspension was placed into a 96-well microtiter plater with 50 μL of tested peptide solution at different concentrations and the mixture was incubated for 1 h at 37°C. […] The minimum hemolytic concentrations (MHCs) were defined as the peptide concentrations resulting in 5% hemolysis.

Data set [1] concerns S. epidermidis ATCC 12228. The class given is cell-based, Staphylococcus epidermidis. Here is the method: as §1
The next data set deals with S. pullorum C79-13. The class given is cell-based, Salmonella pullorum. How it is done: as §1
For data set [2], the system named is Gram-negative and Gram-positive bacterial strains. As to the kind of experiment: Geometric mean of MICs and therapeutic index. The following applies: for GM (geometric mean of the MIC values): all ten tested strains; for Therapeutic index: from MHC and GM. The class given is cell-based. How it is done: as §2, §1

No end group written: not given here.

Take IHFKWRRWKFHI-NH2 [Qna]: the MIC in the data set on S. typhimurium ATCC 7731 amounted to 32 µM; against S. aureus ATCC 29213 it was 32 µM; in the data set on B. pyocyaneum ATCC 27853 it was 32 µM; with B. subtilis CMCC 63501, 64 µM; in the data set with E. coli ATCC25922 it was 32 µM; against E. coli UB1005 it was 16 µM. Moreover, the MIC in the data set with S. faecalis ATCC 29212 worked out at 64 µM; in the data set with S. aureus ATCC 43300, 32 µM; in data set [1], 32 µM; against S. pullorum C79-13 it was 32 µM. Also, the “MHC (minimum hemolytic concentration)” value in the data set on hRBCs was over 128 µM. Moreover, the “GM (geometric mean of the MIC values)” value in [2] stood at 34.3 µM. In data set [2], this substance showed a Therapeutic index of 7.5.

Consider IHKFWRRWFKHI-NH2 [Qa], for which the MIC with S. typhimurium ATCC 7731 was determined as 16 µM; against S. aureus ATCC 29213 it was 8 µM; against B. pyocyaneum ATCC 27853 it was 16 µM; against B. subtilis CMCC 63501, 32 µM; in the data set on E. coli ATCC25922, 16 µM; in the data set with E. coli UB1005, 8 µM. In addition, the MIC (with S. faecalis ATCC 29212; against S. aureus ATCC 43300; in data set [1]; against S. pullorum C79-13) was 16 µM each time. For the same substance, the “MHC (minimum hemolytic concentration)” value in the data set with hRBCs was over 128 µM. Moreover, in data set [2], the “GM (geometric mean of the MIC values)” value was 14.9 µM. In addition, the Therapeutic index in data set [2] came out at 17.2.

The term MIC denotes the lowest concentration found to suppress growth. A lower MIC goes with inhibition by little substance.
